Measurements from the CheMixHub viscosity set.

Test: xn = mol fraction of the nth substance listed

CC(O)CO (stereo not drawn) + CS(C)=O
viscosity [mPa·s], 100 kPa
Conditions	293.15 K	298.15 K	303.15 K	308.15 K	313.15 K	318.15 K
x1 = 0.0513	2.52	2.24	2.04	1.8	1.65	1.55
x1 = 0.1024	2.82	2.51	2.28	1.99	1.82	1.7
x1 = 0.1534	3.19	2.82	2.55	2.21	2.01	1.87
x1 = 0.2043	3.61	3.17	2.86	2.44	2.22	2.06
x1 = 0.255	4.08	3.54	3.19	2.72	2.46	2.27
x1 = 0.3056	4.63	4	3.58	3.02	2.72	–
x1 = 0.356	5.31	4.56	4.03	3.38	3.04	–
x1 = 0.4064	6.1	5.21	4.56	3.82	3.39	–
x1 = 0.4566	7.04	5.93	5.17	4.28	3.8	–
x1 = 0.5066	8.19	6.88	5.94	4.84	4.25	–
x1 = 0.5565	9.53	7.93	6.78	5.52	4.8	–
x1 = 0.6063	11.3	9.3	7.84	6.36	5.45	–
x1 = 0.6556	13.5	11	9.26	7.35	6.26	–
x1 = 0.7055	16.3	13.1	10.9	8.58	7.23	–
x1 = 0.7549	19.9	15.8	12.8	10.1	8.38	–
x1 = 0.8042	24.4	19	15.4	12	9.8	–
x1 = 0.8533	30.1	23.2	18.5	14.3	11.5	–
x1 = 0.9024	37.7	28.7	22.7	17.2	13.7	–
x1 = 0.9512	47.5	35.5	27.6	20.7	16.2	–

CC(O)CO (stereo not drawn) + O
Conditions	viscosity [mPa·s]
293.15 K, 101 kPa, x1 = 0.0256	1.469
293.15 K, 101 kPa, x1 = 0.0558	2.125
293.15 K, 101 kPa, x1 = 0.092	3.14
293.15 K, 101 kPa, x1 = 0.1362	4.717
293.15 K, 101 kPa, x1 = 0.1913	6.665
293.15 K, 101 kPa, x1 = 0.2619	9.425
293.15 K, 101 kPa, x1 = 0.3556	14.17
293.15 K, 101 kPa, x1 = 0.4862	21.99
293.15 K, 101 kPa, x1 = 0.6804	35.18
298.15 K, 100 kPa, x1 = 0.2	5.452
298.15 K, 100 kPa, x1 = 0.4	12.77
298.15 K, 100 kPa, x1 = 0.6	21.63
298.15 K, 100 kPa, x1 = 0.8	32.85
298.15 K, 101 kPa, x1 = 0.197	5.634
298.15 K, 101 kPa, x1 = 0.3086	9.397
298.15 K, 101 kPa, x1 = 0.3774	12.17
298.15 K, 101 kPa, x1 = 0.4524	15.52
298.15 K, 101 kPa, x1 = 0.5109	18.22
298.15 K, 101 kPa, x1 = 0.5926	22.24
298.15 K, 101 kPa, x1 = 0.6898	27.16
298.15 K, 101 kPa, x1 = 0.8043	33.02
298.15 K, 101 kPa, x1 = 0.8747	36.98
298.15 K, 101 kPa, x1 = 0.9466	41.1
298.15 K, 101.3 kPa, x1 = 0.03	1.311
298.15 K, 101.3 kPa, x1 = 0.06	1.851
298.15 K, 101.3 kPa, x1 = 0.1	2.733
298.15 K, 101.3 kPa, x1 = 0.12	3.233
298.15 K, 101.3 kPa, x2 = 0.044	41.25
303.15 K, 101 kPa, x1 = 0.0101	0.902
303.15 K, 101 kPa, x1 = 0.02	1.022
303.15 K, 101 kPa, x1 = 0.0256	1.133
303.15 K, 101 kPa, x1 = 0.03	1.143
303.15 K, 101 kPa, x1 = 0.0399	1.282
303.15 K, 101 kPa, x1 = 0.0501	1.424
303.15 K, 101 kPa, x1 = 0.0558	1.572
303.15 K, 101 kPa, x1 = 0.0598	1.568
303.15 K, 101 kPa, x1 = 0.07	1.726
303.15 K, 101 kPa, x1 = 0.08	1.896
303.15 K, 101 kPa, x1 = 0.0899	2.059
303.15 K, 101 kPa, x1 = 0.092	2.236
303.15 K, 101 kPa, x1 = 0.1	2.246
303.15 K, 101 kPa, x1 = 0.1362	3.17
303.15 K, 101 kPa, x1 = 0.1913	4.481
303.15 K, 101 kPa, x1 = 0.2619	6.027
303.15 K, 101 kPa, x1 = 0.3556	8.744
303.15 K, 101 kPa, x1 = 0.4862	13.55
303.15 K, 101 kPa, x1 = 0.6804	21
303.15 K, 101 kPa, x2 = 0.97	1.143
308.15 K, 101 kPa, x1 = 0.0101	0.81
308.15 K, 101 kPa, x1 = 0.02	0.91
308.15 K, 101 kPa, x1 = 0.0399	1.13
308.15 K, 101 kPa, x1 = 0.0501	1.249
308.15 K, 101 kPa, x1 = 0.0598	1.373
308.15 K, 101 kPa, x1 = 0.07	1.499
308.15 K, 101 kPa, x1 = 0.08	1.642
308.15 K, 101 kPa, x1 = 0.0899	1.775
308.15 K, 101 kPa, x1 = 0.1	1.927
313.15 K, 101 kPa, x1 = 0.0101	0.732
313.15 K, 101 kPa, x1 = 0.02	0.82
313.15 K, 101 kPa, x1 = 0.0256	0.9114
313.15 K, 101 kPa, x1 = 0.03	0.907
313.15 K, 101 kPa, x1 = 0.0399	1.005
313.15 K, 101 kPa, x1 = 0.0501	1.105
313.15 K, 101 kPa, x1 = 0.0558	1.267
313.15 K, 101 kPa, x1 = 0.0598	1.213
313.15 K, 101 kPa, x1 = 0.07	1.315
313.15 K, 101 kPa, x1 = 0.08	1.437
313.15 K, 101 kPa, x1 = 0.0899	1.543
313.15 K, 101 kPa, x1 = 0.092	1.703
313.15 K, 101 kPa, x1 = 0.1	1.671
313.15 K, 101 kPa, x1 = 0.1362	2.278
313.15 K, 101 kPa, x1 = 0.1913	2.952
313.15 K, 101 kPa, x1 = 0.2619	4.008
313.15 K, 101 kPa, x1 = 0.3556	5.698
313.15 K, 101 kPa, x1 = 0.4862	8.384
313.15 K, 101 kPa, x1 = 0.6804	12.88
313.15 K, 101 kPa, x2 = 0.97	0.9218
318.15 K, 101 kPa, x1 = 0.0101	0.667
318.15 K, 101 kPa, x1 = 0.02	0.743
318.15 K, 101 kPa, x1 = 0.03	0.819
318.15 K, 101 kPa, x1 = 0.0399	0.904
318.15 K, 101 kPa, x1 = 0.0501	0.99
318.15 K, 101 kPa, x1 = 0.0598	1.078
318.15 K, 101 kPa, x1 = 0.07	1.168
318.15 K, 101 kPa, x1 = 0.08	1.268
318.15 K, 101 kPa, x1 = 0.0899	1.361
318.15 K, 101 kPa, x1 = 0.1	1.466
323.15 K, 100 kPa, x1 = 0.2	2.308
323.15 K, 100 kPa, x1 = 0.4	4.7
323.15 K, 100 kPa, x1 = 0.6	7.261
323.15 K, 100 kPa, x1 = 0.8	9.984
323.15 K, 101 kPa, x1 = 0.0101	0.611
323.15 K, 101 kPa, x1 = 0.02	0.678
323.15 K, 101 kPa, x1 = 0.0256	0.7514
323.15 K, 101 kPa, x1 = 0.03	0.744
323.15 K, 101 kPa, x1 = 0.0558	0.9714
323.15 K, 101 kPa, x1 = 0.092	1.282
323.15 K, 101 kPa, x1 = 0.1362	1.644
323.15 K, 101 kPa, x1 = 0.1913	2.138
323.15 K, 101 kPa, x1 = 0.2619	2.813
323.15 K, 101 kPa, x1 = 0.3556	3.891
323.15 K, 101 kPa, x1 = 0.4862	5.583
323.15 K, 101 kPa, x1 = 0.6804	8.332
